Measurements taken from patent US5834279A (priority 1997, dated 1998).
Where two headings read alike, the source gives them in different places.

Columns and labels:
[1] = target: T1, M. tuberculosis ribonucleotide reductase (Mycobacterium tuberculosis, UniProt P9WH75); assay: biochemical; format: biochemical; conditions: for Maximal stimulated ribonucleotide reduction (Example 2): Example 2, written in present tense; for Maximal stimulated CDP reduction: equimolar R1 and R2, DTT as reductant
Target sequence in this assay (P9WH75 3-725): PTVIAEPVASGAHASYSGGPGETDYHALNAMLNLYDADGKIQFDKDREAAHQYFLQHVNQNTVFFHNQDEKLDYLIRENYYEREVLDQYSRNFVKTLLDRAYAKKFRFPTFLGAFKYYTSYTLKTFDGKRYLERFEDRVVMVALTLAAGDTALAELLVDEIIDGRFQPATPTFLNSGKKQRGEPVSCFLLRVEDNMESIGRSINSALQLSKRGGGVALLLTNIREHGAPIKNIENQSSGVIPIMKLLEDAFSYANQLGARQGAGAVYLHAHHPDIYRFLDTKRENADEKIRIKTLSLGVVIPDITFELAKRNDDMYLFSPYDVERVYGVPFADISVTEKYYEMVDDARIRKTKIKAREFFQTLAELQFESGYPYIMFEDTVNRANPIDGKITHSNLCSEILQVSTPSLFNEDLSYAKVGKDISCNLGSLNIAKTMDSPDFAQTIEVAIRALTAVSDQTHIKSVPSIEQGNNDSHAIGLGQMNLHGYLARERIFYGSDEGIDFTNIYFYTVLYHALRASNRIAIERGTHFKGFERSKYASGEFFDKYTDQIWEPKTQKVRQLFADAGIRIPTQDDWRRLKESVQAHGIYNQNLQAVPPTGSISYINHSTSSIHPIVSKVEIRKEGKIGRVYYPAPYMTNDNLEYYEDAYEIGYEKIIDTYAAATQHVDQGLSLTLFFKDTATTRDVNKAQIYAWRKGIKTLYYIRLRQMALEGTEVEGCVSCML

[2] = target: T1, M. tuberculosis ribonucleotide reductase; format: biochemical
Target sequence in this assay (P9WH75 whole entry, looked up): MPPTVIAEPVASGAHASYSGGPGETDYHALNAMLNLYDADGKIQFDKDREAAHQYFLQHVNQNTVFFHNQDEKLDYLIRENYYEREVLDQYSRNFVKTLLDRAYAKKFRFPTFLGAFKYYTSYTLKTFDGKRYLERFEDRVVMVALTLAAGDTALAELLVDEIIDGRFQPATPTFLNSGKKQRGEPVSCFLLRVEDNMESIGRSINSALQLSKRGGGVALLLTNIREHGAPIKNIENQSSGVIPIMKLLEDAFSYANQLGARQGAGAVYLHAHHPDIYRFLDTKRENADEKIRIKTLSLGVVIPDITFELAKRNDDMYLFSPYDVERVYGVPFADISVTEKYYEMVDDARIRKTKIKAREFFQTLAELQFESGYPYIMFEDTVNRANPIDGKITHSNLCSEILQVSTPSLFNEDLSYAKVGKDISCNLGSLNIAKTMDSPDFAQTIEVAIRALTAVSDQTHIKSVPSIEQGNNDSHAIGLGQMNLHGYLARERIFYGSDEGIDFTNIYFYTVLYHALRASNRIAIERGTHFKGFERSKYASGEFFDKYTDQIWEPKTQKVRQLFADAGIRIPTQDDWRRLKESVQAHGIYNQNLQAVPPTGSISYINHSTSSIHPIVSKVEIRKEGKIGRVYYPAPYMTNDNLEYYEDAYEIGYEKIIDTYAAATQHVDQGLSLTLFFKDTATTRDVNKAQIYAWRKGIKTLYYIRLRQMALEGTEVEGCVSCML

[3] = target: M. tuberculosis ribonucleotide reductase R1 (Mycobacterium tuberculosis, UniProt P9WH75); format: binding; conditions: 5 mM ATP
[4] = target: M. tuberculosis topoisomerase I (Mycobacterium tuberculosis, UniProt P9WG49); format: biochemical; conditions: 150 ng enzyme, 1.0 mM MgCl2
[5] = target: nrdA/nrdB ribonucleotide reductase (Escherichia coli, UniProt P00452); conditions: negative effector at higher concentrations; cited from earlier work
[6] = target: T2, mammalian enzyme (ribonucleotide reductase) (Homo sapiens, UniProt P23921); conditions: cited from earlier work
T2 sequence (P23921 1-792): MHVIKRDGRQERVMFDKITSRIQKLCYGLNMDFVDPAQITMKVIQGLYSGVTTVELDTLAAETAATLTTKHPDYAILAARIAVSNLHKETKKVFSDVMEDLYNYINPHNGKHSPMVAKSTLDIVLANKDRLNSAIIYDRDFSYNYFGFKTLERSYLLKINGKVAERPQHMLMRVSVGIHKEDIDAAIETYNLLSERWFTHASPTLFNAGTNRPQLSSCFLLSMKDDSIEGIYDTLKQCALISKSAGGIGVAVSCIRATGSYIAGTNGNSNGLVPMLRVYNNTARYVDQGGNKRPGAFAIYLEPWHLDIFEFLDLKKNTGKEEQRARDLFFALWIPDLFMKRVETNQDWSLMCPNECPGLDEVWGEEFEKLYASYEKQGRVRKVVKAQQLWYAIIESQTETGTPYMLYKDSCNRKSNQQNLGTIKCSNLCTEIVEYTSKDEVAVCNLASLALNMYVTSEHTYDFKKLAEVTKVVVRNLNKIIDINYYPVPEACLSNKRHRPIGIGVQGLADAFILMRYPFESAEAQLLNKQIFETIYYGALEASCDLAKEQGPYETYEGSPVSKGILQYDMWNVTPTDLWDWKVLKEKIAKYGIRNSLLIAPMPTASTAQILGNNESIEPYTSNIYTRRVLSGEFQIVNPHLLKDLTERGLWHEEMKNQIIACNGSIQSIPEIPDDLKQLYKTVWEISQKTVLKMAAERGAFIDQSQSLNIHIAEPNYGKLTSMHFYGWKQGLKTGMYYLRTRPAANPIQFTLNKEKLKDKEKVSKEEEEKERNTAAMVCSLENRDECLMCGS

[7] = target: T3, nrdE/nrdF ribonucleotide reductase (Salmonella typhimurium, UniProt Q08698); conditions: cited from earlier work
T3 construct: host or cells: recombinant expression plasmid system (as reported)

[8] = target: T4, calf thymus ribonucleotide reductase (Bos taurus, UniProt E1BI58); conditions: cited from earlier work
T4 construct: slightly higher than that found for calf thymus; host or cells: calf thymus

M. smegmatis = conditions: 200 μg/ml hydroxyurea; cited from earlier work
[9] = target: Salmonella ribonucleotide reductase (Salmonella typhimurium, UniProt P17424); conditions: cited from earlier work
[10] = 5 mg reconstituted RR (1:1 R1 to R2-2), 6 mM CDP, 2 mM ATP, 0.0-0.5 mM inhibitor, read-out: IC50, inhibition of CDP reduction activity by C-terminal R2 peptides

Sequence of M. tuberculosis topoisomerase I (P9WG49 2-896, added parts left off): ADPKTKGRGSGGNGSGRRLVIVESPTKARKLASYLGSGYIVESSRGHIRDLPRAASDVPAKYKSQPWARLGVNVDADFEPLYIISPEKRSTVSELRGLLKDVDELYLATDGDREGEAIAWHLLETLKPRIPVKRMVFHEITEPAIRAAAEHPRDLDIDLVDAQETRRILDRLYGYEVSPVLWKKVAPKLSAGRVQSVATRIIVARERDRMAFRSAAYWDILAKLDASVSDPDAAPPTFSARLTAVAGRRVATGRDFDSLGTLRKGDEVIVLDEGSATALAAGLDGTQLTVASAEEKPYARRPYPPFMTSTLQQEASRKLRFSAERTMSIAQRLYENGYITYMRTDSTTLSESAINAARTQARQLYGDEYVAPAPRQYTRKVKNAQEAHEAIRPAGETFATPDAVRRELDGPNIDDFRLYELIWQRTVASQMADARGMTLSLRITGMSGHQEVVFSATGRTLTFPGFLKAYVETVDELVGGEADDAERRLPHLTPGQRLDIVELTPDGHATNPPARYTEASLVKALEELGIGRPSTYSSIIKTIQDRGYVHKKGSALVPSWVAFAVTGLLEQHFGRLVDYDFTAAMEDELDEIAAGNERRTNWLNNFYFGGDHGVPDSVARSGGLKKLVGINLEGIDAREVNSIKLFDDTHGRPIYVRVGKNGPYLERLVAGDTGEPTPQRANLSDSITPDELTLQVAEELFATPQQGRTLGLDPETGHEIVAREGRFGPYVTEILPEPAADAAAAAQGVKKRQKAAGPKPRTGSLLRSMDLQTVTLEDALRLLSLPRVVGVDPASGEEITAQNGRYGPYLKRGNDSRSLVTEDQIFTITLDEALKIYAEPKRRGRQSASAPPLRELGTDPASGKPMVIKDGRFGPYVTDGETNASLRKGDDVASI
Sequence of Salmonella ribonucleotide reductase (P17424 whole entry): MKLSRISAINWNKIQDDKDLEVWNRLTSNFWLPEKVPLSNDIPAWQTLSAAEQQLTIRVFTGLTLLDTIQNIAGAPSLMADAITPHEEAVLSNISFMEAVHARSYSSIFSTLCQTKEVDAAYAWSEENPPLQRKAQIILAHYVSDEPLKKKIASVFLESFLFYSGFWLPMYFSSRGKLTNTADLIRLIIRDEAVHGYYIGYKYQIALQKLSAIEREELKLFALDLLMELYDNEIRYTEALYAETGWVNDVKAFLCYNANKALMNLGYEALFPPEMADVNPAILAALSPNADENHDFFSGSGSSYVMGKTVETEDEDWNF
T3 sequence (P17424 whole entry): as above
T3 sequence (Q08698 whole entry): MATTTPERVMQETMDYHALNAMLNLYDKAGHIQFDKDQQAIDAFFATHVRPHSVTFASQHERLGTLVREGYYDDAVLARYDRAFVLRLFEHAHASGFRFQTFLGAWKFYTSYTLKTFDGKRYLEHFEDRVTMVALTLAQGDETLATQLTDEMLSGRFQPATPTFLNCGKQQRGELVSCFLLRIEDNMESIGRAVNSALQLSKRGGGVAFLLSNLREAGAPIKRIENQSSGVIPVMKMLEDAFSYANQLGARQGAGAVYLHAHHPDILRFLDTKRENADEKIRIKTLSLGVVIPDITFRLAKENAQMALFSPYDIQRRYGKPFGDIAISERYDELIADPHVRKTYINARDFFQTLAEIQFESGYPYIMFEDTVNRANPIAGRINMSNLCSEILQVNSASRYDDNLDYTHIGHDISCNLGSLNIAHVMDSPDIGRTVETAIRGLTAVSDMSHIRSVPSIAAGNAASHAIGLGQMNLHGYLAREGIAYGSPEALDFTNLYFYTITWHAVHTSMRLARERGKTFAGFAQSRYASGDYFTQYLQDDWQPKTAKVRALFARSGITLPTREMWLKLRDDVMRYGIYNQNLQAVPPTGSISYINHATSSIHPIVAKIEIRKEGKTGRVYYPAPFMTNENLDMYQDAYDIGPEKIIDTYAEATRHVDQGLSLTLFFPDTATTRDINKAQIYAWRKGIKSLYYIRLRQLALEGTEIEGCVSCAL
T4 sequence (E1BI58 entry or part of it): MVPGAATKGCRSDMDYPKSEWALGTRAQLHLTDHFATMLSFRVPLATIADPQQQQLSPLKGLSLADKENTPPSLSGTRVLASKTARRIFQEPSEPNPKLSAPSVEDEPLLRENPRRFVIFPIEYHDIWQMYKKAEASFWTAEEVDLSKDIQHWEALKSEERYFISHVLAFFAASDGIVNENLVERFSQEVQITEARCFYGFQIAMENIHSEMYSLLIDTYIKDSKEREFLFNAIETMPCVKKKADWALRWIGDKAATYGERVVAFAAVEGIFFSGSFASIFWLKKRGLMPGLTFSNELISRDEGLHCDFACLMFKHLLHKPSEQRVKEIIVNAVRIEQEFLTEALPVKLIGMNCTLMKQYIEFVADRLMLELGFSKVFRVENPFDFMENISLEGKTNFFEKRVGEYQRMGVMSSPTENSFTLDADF
Sequence of M. tuberculosis ribonucleotide reductase R1 (P9WH75 3-725 limits assumed): as the sequence (P9WH75 3-725) above

In the case of `Nc1ncnc2c1ncn2[C@@H]1O[C@H](COP(=O)(O)OP(=O)(O)OP(=O)(O)O)[C@@H](O)[C@H]1O` [ATP], the “Concentration above which the effector inhibited the activity” value [1] is reported as “higher than 2 mM”, the “Optimum concentration of activator for CDP reduction” value [1] is reported as 1 to 2 mM and the “Maximal stimulated ribonucleotide reduction (Example 2)” value [1] is reported as “up to 45 pmoles deoxyribonucleotide in 20 min”. For the same compound, the “Maximal stimulated CDP reduction” value [1] was “up to 45 pmoles dCDP in 20 min”, the “Effect of nucleotide effector on ribonucleotide reductase activity of native enzyme” value [2] was “stimulated” and the “Labeling of the 84,000 Da band by [alpha-32P]dATP” value [3] was “completely inhibited”. For the same compound, the “Effect of ATP on DNA relaxing activity” value ([4]; 0.4-1.6 mM ATP) was “inhibited the reaction”.

Work on “Ac-EDDDWDF-OH [R2P7-2, Acetyl-EDDDWDF-OH]” yielded an IC50 [1, 10] of 15 to 20 µM.

For `Nc1ncnc2c1ncn2[C@H]1C[C@H](O)[C@@H](COP(=O)(O)OP(=O)(O)OP(=O)(O)O)O1` [dATP], the “Maximal stimulated ribonucleotide reduction (Example 2)” value [1] was ≤ 13 pmoles deoxyribonucleotide in 20 min, the “Maximal stimulated CDP reduction” value [1] was ≤ 13 pmoles dCDP in 20 min and the “Highest concentration at which the effector still stimulated reduction” value ([1]; inhibition at higher concentrations) was ≤ 1 mM. The “Effect of nucleotide effector on ribonucleotide reductase activity of native enzyme” value [2] was “inhibited”, the “Concentration up to which dATP activates, nrdA/nrdB system” value [5] was “up to 1 uM” and the “dATP concentration above which inhibition is seen in the mammalian system” value [6] was “greater than 0.1 mM”. The “Concentration up to which dATP is a positive allosteric activator, nrdE/nrdF system” value [7] was “up to 1 mM”.

In the case of `NC(=O)NO` [hydroxyurea], the IC90 [8] is listed as 1 mM, the IC50 ([1]; read-out: IC50, inhibition of the activity of CDP reduction by hydroxyurea) is listed as 2000 µM and the “Growth of M. smegmatis” value (M. smegmatis) is listed as “completely inhibited”. For the same compound, the IC50 [9] was ~500 µM.

Work on “Ac-TDTDWDF-OH [R2P7-1, Acetyl-TDTDWDF-OH]” yielded an IC50 [1, 10] of 100 µM.

In the case of `NCCCCNCCCN` [spermidine], the “DNA relaxing activity in the presence of spermidine” value ([4]; 4.0 mM spermidine) is reported as “almost completely inhibited”.
